Laboratory results taken from ChEMBL document CHEMBL5465560, “Selectivity Literature for EUbOPEN Chemogenomic Library” (2024).

Tests used:
[1] = target: Fibroblast growth factor receptor 1 (Homo sapiens, UniProt P11362); test: Selectivity interaction (Kinase panel (DSF assay)) EUB0001558a FGFR1
[2] = target: Tyrosine-protein kinase ABL1 (Homo sapiens, UniProt P00519); test: Selectivity interaction (Kinase panel (DSF assay)) EUB0001558a ABL1
[3] = target: T1, Serine/threonine-protein kinase Chk1 (Homo sapiens) (UniProt O14757); test: Selectivity interaction (ProQinase) EUB0000171b CHEK1
T1 sequence (whole entry): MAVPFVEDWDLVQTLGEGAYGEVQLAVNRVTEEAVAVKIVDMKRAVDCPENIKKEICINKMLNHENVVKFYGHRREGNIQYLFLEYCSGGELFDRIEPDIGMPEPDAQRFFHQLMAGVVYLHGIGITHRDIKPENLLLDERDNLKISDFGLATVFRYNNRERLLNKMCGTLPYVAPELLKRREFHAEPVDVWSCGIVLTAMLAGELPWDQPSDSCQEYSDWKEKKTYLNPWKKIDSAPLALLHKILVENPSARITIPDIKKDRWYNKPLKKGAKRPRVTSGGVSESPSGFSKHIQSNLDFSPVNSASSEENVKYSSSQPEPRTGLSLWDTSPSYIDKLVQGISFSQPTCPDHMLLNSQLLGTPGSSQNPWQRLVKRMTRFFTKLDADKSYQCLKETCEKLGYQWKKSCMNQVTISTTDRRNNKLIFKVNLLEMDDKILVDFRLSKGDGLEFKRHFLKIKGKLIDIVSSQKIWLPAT

[4] = target: Cyclin-dependent kinase 20 (Homo sapiens) (UniProt Q8IZL9); test: Selectivity interaction (Kinase panel (KiNativ target engagement assay in Jurkat cells)) EUB0001635a CDK20; type: cell-based; details: Selectivity number of off-targets 0.0, Selectivity number of targets 233.0, Source Knowledge https://www.sciencedirect.com/science/article/pii/S2451945619300674?via%3Dihub, at 1 µM
[5] = target: Tyrosine-protein kinase JAK1 (Homo sapiens, UniProt P23458); test: Selectivity interaction (Kinase panel (KiNativ target engagement assay in Jurkat cells)) EUB0001635a JAK1; type: cell-based; details: Selectivity number of off-targets 0.0, Selectivity number of targets 233.0, Source Knowledge https://www.sciencedirect.com/science/article/pii/S2451945619300674?via%3Dihub, at 1 µM
[6] = target: Non-receptor tyrosine-protein kinase TYK2 (Homo sapiens, UniProt P29597); test: Selectivity interaction (ActivX KiNativ screen (kinase selectivity in THP-1 cell lysates)) EUB0000639a TYK2; type: subcellular; details: lysate, at 1 µM
[7] = target: Glutamate receptor ionotropic, NMDA 2B (Homo sapiens) (UniProt Q13224); test: Selectivity interaction (Panel of kinases, GPCRs, ion channels and transporters (enzymatic assay)) EUB0000223bCl GRIN2B
[8] = target: T2, Mitogen-activated protein kinase kinase kinase kinase 3 (Homo sapiens) (UniProt Q8IVH8); test: Selectivity interaction (KinomeScan (DiscoverX)) EUB0000607a MAP4K3; details: at 10 µM
T2 sequence (whole entry): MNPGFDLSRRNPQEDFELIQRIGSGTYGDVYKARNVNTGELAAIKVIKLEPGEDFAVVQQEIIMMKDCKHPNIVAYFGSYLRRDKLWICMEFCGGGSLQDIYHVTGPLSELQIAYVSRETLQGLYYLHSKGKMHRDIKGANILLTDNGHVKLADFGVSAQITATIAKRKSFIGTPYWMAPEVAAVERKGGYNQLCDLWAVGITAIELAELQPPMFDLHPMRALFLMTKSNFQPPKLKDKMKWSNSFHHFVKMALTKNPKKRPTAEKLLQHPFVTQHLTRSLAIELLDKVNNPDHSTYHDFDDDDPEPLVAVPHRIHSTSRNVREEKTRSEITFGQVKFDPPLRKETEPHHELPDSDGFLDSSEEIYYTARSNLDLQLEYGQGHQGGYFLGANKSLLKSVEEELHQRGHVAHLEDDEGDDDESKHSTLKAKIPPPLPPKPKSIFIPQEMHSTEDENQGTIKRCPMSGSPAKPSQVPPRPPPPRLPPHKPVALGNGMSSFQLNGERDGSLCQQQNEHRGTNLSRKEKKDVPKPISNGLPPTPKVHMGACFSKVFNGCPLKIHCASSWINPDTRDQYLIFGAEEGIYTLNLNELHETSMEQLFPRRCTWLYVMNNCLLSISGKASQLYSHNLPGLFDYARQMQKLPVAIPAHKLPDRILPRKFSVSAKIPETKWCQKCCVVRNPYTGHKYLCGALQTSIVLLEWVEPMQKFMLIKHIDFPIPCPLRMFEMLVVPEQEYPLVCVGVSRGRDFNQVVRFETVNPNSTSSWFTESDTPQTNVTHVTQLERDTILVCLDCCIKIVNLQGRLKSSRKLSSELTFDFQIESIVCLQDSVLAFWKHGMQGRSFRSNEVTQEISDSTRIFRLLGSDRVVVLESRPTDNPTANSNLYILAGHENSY

[9] = target: T3, Uncharacterized serine/threonine-protein kinase SBK3 (Homo sapiens) (UniProt P0C264); test: Selectivity interaction (KinomeScan (DiscoverX)) EUB0000695a SBK3; details: at 100 nM
T3 sequence (whole entry): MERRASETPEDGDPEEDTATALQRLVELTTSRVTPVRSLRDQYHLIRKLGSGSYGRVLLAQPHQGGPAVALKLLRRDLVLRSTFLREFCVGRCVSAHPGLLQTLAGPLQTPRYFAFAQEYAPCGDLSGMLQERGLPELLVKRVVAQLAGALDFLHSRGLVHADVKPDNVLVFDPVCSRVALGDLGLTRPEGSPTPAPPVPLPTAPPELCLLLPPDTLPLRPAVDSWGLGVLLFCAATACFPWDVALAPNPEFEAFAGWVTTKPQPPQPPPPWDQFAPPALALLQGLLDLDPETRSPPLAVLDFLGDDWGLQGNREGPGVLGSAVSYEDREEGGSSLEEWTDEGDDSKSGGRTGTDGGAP

[10] = target: Vascular endothelial growth factor receptor 2 (Homo sapiens, UniProt P35968); test: Selectivity interaction (Kinase panel (enzymatic assay)) EUB0000595a KDR
[11] = target: High affinity nerve growth factor receptor (Homo sapiens, UniProt P04629); test: Selectivity interaction (KinomeScan (DiscoverX)) EUB0000618a NTRK1; details: at 10 µM
[12] = target: Casein kinase I isoform gamma-2 (Homo sapiens) (UniProt P78368); test: Selectivity interaction (KinomeScan (DiscoverX)) EUB0000618a CSNK1G2; details: at 10 µM
[13] = target: Calcium/calmodulin-dependent protein kinase type 1D (Homo sapiens) (UniProt Q8IU85); test: Selectivity interaction (Ambit KINOMEscan and KiNATiv profiling in Jurkat cells) EUB0000090b CAMK1D; type: cell-based; details: at 1 µM
[14] = target: Serine/threonine-protein kinase Nek6 (Homo sapiens) (UniProt Q9HC98); test: Selectivity interaction (KinomeScan (DiscoverX)) EUB0001619a NEK6; details: at 1 µM
Serine/threonine-protein kinase Nek6 (Homo sapiens), sequence (Q9HC98 whole entry): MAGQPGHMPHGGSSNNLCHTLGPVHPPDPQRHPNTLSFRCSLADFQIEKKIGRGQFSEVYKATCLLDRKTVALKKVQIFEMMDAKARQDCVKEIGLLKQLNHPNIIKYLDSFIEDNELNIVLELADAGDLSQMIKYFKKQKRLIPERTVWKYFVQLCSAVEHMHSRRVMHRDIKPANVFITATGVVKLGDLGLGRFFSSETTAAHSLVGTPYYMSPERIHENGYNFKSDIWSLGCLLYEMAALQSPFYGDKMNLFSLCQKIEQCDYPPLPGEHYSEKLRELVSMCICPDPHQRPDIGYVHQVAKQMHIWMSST

Fibroblast growth factor receptor 1, sequence (P11362 22-822 limits assumed): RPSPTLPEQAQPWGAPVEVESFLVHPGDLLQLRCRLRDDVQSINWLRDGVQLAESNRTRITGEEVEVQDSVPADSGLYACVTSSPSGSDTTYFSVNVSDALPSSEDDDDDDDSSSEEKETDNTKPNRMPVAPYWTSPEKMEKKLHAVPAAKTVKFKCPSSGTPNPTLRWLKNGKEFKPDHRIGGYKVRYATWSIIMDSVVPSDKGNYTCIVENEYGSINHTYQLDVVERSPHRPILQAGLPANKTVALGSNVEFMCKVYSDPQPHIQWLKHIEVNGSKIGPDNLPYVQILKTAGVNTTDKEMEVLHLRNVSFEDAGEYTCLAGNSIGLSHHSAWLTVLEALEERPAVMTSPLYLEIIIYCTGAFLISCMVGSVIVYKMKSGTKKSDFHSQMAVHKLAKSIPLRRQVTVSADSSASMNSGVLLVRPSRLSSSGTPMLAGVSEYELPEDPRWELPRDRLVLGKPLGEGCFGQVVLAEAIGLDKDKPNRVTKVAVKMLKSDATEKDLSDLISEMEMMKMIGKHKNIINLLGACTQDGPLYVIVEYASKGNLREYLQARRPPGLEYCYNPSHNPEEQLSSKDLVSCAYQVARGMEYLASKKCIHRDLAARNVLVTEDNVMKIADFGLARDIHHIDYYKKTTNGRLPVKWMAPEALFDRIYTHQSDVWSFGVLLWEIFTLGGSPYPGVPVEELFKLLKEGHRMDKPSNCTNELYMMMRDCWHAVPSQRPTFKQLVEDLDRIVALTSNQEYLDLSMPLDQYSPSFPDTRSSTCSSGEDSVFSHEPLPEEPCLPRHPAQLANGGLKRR
Non-receptor tyrosine-protein kinase TYK2, sequence (P29597 whole entry): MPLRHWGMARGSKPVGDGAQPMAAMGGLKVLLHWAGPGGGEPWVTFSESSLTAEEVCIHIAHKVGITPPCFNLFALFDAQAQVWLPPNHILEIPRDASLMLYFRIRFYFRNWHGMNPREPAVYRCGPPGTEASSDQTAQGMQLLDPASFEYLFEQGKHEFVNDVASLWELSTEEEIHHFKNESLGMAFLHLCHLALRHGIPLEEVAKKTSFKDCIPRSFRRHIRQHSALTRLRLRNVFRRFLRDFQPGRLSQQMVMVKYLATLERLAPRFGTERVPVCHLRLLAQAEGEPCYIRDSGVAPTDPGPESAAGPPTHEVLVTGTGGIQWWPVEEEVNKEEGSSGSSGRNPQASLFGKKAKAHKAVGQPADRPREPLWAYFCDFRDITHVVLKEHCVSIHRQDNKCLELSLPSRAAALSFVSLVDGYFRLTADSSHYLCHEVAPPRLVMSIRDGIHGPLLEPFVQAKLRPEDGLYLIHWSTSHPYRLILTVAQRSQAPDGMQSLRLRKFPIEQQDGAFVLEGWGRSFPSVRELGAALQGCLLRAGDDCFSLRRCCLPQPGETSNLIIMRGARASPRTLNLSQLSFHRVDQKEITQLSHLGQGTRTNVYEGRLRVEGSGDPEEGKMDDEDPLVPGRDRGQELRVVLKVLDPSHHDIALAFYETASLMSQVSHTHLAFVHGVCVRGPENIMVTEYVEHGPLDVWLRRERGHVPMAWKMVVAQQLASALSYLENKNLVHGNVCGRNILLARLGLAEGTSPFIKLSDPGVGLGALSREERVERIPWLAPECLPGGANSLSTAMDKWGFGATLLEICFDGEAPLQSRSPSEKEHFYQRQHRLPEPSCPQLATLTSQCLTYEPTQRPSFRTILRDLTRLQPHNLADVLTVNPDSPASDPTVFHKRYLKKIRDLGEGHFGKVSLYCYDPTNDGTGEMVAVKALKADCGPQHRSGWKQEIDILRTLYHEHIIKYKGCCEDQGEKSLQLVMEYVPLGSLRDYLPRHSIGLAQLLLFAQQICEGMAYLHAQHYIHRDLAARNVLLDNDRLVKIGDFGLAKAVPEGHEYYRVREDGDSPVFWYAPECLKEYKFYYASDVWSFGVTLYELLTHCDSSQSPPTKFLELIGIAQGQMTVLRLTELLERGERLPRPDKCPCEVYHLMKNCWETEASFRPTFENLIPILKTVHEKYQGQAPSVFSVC
Casein kinase I isoform gamma-2 (Homo sapiens), sequence (P78368 whole entry, looked up, canonical isoform): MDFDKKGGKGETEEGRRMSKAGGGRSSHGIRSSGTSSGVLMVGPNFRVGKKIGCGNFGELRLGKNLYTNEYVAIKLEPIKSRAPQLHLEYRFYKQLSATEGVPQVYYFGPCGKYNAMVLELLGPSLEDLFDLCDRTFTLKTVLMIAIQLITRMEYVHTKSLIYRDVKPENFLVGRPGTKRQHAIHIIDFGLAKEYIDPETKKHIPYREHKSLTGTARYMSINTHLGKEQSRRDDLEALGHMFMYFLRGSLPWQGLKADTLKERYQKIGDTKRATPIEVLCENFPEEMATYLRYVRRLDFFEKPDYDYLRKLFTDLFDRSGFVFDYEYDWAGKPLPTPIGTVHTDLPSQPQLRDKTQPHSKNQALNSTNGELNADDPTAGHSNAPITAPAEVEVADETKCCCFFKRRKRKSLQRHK
Vascular endothelial growth factor receptor 2, sequence (P35968 whole entry): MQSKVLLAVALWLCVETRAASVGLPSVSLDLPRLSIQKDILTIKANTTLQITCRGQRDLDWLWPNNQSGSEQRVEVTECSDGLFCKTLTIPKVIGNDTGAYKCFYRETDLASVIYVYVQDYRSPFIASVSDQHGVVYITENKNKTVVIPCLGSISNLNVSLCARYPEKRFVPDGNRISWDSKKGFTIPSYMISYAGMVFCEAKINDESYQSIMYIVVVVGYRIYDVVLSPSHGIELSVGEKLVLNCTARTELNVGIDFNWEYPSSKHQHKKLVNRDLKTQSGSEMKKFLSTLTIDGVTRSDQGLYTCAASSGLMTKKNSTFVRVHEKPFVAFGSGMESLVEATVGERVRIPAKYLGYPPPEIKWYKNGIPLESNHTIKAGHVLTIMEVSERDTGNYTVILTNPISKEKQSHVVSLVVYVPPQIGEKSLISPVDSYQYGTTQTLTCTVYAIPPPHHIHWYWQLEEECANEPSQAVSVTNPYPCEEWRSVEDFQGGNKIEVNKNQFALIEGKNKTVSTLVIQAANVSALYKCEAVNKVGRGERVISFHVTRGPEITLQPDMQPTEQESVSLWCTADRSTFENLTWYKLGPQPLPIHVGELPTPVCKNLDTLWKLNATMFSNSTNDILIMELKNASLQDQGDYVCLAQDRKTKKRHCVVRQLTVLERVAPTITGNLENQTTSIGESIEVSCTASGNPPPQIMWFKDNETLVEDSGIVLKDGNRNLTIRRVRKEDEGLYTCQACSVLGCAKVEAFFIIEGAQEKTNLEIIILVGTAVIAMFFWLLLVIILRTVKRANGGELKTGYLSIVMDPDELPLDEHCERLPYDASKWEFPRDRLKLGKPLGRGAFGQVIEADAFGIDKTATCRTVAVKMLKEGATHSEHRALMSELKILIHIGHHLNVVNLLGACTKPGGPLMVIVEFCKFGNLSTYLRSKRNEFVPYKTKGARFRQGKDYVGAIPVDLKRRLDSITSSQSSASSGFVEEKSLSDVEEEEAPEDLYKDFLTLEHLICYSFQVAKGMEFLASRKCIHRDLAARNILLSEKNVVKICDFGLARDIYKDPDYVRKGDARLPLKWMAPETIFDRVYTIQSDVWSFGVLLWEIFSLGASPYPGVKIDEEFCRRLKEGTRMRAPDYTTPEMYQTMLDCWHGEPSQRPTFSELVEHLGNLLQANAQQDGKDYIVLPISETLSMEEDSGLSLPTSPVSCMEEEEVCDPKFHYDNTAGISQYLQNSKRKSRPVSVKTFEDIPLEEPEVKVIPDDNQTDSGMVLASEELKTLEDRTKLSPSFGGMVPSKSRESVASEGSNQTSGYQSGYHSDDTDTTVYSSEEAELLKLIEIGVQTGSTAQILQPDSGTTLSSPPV
Calcium/calmodulin-dependent protein kinase type 1D (Homo sapiens), sequence (Q8IU85 whole entry, looked up): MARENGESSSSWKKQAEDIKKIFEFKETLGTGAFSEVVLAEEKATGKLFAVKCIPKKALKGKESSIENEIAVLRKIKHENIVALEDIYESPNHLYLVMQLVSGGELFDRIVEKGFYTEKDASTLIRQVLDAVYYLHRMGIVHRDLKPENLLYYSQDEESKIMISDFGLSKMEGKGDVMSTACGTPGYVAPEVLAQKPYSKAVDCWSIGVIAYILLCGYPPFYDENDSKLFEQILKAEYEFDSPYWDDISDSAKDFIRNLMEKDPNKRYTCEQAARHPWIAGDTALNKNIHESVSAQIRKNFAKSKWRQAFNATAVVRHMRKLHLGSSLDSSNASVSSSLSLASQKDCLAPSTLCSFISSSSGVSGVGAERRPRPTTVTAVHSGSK
Cyclin-dependent kinase 20 (Homo sapiens), sequence (Q8IZL9 whole entry): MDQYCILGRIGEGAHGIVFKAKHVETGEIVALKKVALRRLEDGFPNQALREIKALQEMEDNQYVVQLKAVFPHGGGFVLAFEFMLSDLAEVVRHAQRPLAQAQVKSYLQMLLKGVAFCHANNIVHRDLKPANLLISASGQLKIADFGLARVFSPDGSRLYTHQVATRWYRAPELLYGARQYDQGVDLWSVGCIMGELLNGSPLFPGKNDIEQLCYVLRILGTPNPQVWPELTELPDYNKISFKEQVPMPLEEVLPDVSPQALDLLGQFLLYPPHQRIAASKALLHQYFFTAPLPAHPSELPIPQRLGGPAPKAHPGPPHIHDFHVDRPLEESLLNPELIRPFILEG

`CC(C)(O)[C@H](F)CN1Cc2cc(NC(=O)c3cnn4cccnc34)c(N3CCOCC3)cc2C1=O` was tested, and the dTM [1] was 1.1 K and the dTM [2] was 1.7 K.

With `C=CC(=O)Nc1cccc(C(=O)Nc2ccc(Nc3cc(-c4[nH]c(SC)nc4C)ccn3)cc2)c1` the % of control ([3]; at 1 µM) was 94% and the % of control ([3]; at 5 µM) was 100%.

In the case of `C=CC(=O)Nc1ccc(C(=O)Nc2[nH]nc3c2CN(C(=O)N[C@H](CN(C)C)c2ccccc2)C3(C)C)cc1`, the % of engagement [4] is reported as 4.7% and the % of engagement [5] is reported as 11.1%.

In the case of `CC[C@@H]1[C@H](F)C(=O)N[C@@H]1COc1nccc2cc(C(N)=O)c(OC)cc12` [ZIMLOVISERTIB], the % of inhibition [6] is reported as -8.7%.

Work on `COc1cc(C(=O)N2CC[C@@H](O)[C@@H](N)C2)cc2nc(-c3cc4ccccc4n3CC3CC3)n(C)c12` yielded a pXC50 [7] of 4.8 M.

Work on `CNC(=O)Nc1ccc(-c2nc(N3CC4CCC(C3)O4)c3cnn(C4CCC5(CC4)OCCO5)c3n2)cc1` yielded a % of control [8] of 94%.

`Cc1cc(F)c(C(=O)Nc2cccc(-c3nncn3C(C)C)n2)cc1-n1cnc(C2CC2)c1` was tested, and the % of control [9] was 85%.

`COCC(=O)NC/C=C/c1ccc2ncnc(Nc3ccc(Oc4ccc(C)nc4)c(C)c3)c2c1` [CP-724714] gave an IC50 [10] of over 10 µM.

For `O[C@H]1CC[C@H](Nc2ncc3nc(Nc4c(F)cc(F)cc4F)n([C@H]4CCOC4)c3n2)CC1`, the % of control [11] was 75% and the % of control [12] was 100%.

For `CN(C)C/C=C/C(=O)Nc1ccc(C(=O)N2CCCC(Nc3ncc(Cl)c(-c4c[nH]c5ccccc45)n3)C2)cc1` (stereo not given), the % of control [13] was 78%.

With `N#Cc1cccc(-c2c[nH]c3ncnc(N4CCOCC4)c23)c1` the % of control [14] was 100%.
